Reference: patent US4614714A (priority 1982, dated 1986)
“Also recorded” adds a separate entry of the source. Structures can show the parent of a compound that is named as a salt. Where two headings read alike, the source gives them in different places.

How the values were obtained:
[1] = biological target: T1, novel L-glutamic acid oxidase (Streptomyces sp, UniProt Q8L3C7); experiment: Effects of various additives on the activity of the novel enzyme; format: biochemical, Streptomyces sp. X-119-6; set-up: from the cultured product of an actinomycete newly isolated from a soil sample; made in house; host or cells: cultured product of the natural (non-recombinant) actinomycete strain, purified
T1 sequence (Q8L3C7 15-390 limits assumed): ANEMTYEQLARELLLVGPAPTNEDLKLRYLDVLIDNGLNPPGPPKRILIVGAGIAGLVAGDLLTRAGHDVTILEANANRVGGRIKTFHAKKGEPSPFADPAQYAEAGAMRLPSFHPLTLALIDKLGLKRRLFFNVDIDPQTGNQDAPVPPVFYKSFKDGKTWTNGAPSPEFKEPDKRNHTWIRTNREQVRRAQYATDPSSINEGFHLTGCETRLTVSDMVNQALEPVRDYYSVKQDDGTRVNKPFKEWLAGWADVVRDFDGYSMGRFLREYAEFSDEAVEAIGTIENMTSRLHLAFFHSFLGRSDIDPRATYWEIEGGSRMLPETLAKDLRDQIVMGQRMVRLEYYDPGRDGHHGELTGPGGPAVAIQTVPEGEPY
T1 sequence (Q8L3C7 391-520 limits assumed): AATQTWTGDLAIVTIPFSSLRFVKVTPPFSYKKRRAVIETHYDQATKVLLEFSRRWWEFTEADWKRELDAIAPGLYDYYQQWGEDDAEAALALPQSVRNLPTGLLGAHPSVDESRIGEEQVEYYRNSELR
T1 sequence (Q8L3C7 521-701 limits assumed): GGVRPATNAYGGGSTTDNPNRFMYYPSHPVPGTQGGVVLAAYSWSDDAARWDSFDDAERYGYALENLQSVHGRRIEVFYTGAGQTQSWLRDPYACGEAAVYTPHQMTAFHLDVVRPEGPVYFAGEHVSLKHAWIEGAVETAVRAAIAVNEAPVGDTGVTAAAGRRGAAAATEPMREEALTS

[2] = biological target: T2, immobilized L-glutamic acid oxidase (Streptomyces sp, UniProt Q8L3C7); experiment: Responses of the L-glutamic acid sensor of Example C1 to various amino acids; format: biochemical, Streptomyces sp. X-119-6
T2 construct: from the cultured product of an actinomycete newly isolated from a soil sample; made in house; host or cells: cultured product of the natural (non-recombinant) actinomycete strain; immobilized on a Cellophane membrane with glutaraldehyde
T2 sequence (Q8L3C7 15-390 limits assumed): T1 sequence (Q8L3C7 15-390 limits assumed)
T2 sequence (Q8L3C7 391-520 limits assumed): T1 sequence (Q8L3C7 391-520 limits assumed)
T2 sequence (Q8L3C7 521-701 limits assumed): T1 sequence (Q8L3C7 521-701 limits assumed)
Description: In FIG. 18, the sample solution 2 injected through inlet 1 is transferred by a peristaltic pump 4 together with oxygen saturated buffer 3 into a cell 5.
The results obtained by the measurement are shown as relative responses. The reaction was carried out in 0.1M of acetic acid-sodium acetate buffer at pH 5.5 and 30° C.

[3] = biological target: T1, novel L-glutamic acid oxidase; experiment: Substrate specificity of the novel enzyme, oxygen electrode method
Description: The concentration of each substrate was 10 mM, and the reactions were carried out at pH 7.4 (0.1 M potassium phosphate buffer) and pH 6.0 (0.1 M acetate buffer).
That is, 1 ml of 0.1 M potassium phosphate buffer (pH 7.4) containing 10 mM sodium L-glutamate was charged into an oxygen electrode cell and 10 μl of an enzyme solution was added thereto to measure the oxygen consumption rate. One unit of enzyme was determined as the amount of enzyme which consumes 1μ mol of oxygen per minute at 30° C. in the absence of catalase (unit: hereinafter abbreviated as "U").

[4] = test system: glutamic acid oxidase (known enzyme); details: cited from earlier work; for activity of the known enzyme: relative to L-glutamic acid
[5] = test system: lyophilized cell of E. coli, which exhibits L-glutamic acid decarboxylase activity; details: microorganism electrode, cited from earlier work; for Relative sensitivity ratio: glutamic acid = 100
[6] = additive 1 mM, pH 7.4, no addition = 100
[7] = pH 5.5, read-out: Relative response (%)
[8] = pH 6, read-out: Relative Activity (%) pH 6.0, substrate 10 mM, pH 6.0 (0.1 M acetate buffer), relative to L-glutamic acid
[9] = additive 1 mM, pH 7.4, no addition = 100, read-out: Relative activity
[10] = pH 7.4, read-out: Relative Activity (%) pH 7.4, substrate 10 mM, pH 7.4 (0.1 M potassium phosphate buffer), relative to L-glutamic acid

Row | Compound | activity at 2000 µM [2, 7] | activity at 10000 µM [3, 8] | activity at 10000 µM [3, 10] | other results
1 | O=C(O)c1cc[c]([Hg][Cl])cc1 [PCMB, pchloromercuribenzoate] | – | – | – | inhibition of the activity of the novel enzyme ([1]; additive 1 mM, pH 7.4): about 45%; Relative activity [1, 6]: 55.6
2 | N[C@@H](CCC(=O)O)C(=O)O [L-Glutamic acid] | – | – | – | activity at 2000 µM ([2]; pH 5.5; read-out: Relative response (%)): 100%; activity at 10000 µM ([3]; pH 6, read-out: Relative Activity (%) pH 6.0): 100%; activity at 10000 µM ([3]; pH 7.4, read-out: Relative Activity (%) pH 7.4): 100%
3 | N[C@@H](CO)C(=O)O [L-Serine] | < 0.1% | < 0.1% | – | –
4 | [I-].[K+] [KI] | – | – | – | Relative activity [1, 6]: 100.7
5 | c1ccc(-c2ccccn2)nc1 [α,α'-dipyridyl] | – | – | – | activity at 1000 µM [1, 9]: 94.4%
6 | [Cl-].[Cl-].[Sr+2] [StCl2] | – | – | – | Relative activity [1, 6]: 97.2
7 | NC(=O)CC[C@H](N)C(=O)O [L-Glutamine] | < 2% | < 0.1% | < 0.1% | activity of the known enzyme [4]: 8.4%; relative activity of the known enzyme ([4]; velocity of enzymatic reaction for L-glutamic acid given as 100): 8.4; activity of the novel enzyme (in words) ([3]; pH 7.4): substantially no activity
8 | CCN1C(=O)C=CC1=O [NEM, N--ethylmaleimide] | – | – | – | activity at 1000 µM [1, 9]: 94.4%
9 | N[C@@H](CS)C(=O)O [L-Cysteine] | < 0.1% | < 0.1% | < 0.1% | –
10 | NCC(=O)O [Glycine] | < 0.1% | < 0.1% | < 0.1% | Relative sensitivity ratio [5]: 0.4
11 | [F-].[Na+] [NaF] | – | – | – | Relative activity [1, 6]: 107.6
12 | O=C(O)CN(CCN(CC(=O)O)CC(=O)O)CC(=O)O [EDTA, ethylenediaminetetraacetic acid] | – | – | – | activity at 1000 µM ([1]; pH 7.4, read-out: Relative activity): 96.5%
13 | N=C(N)NCCC[C@H](N)C(=O)O [L-Arginine] | < 0.1% | < 0.1% | < 0.1% | –
14 | N[C@@H](CC(=O)O)C(=O)O [L-Aspartic acid] | < 1% | < 0.1% | 0.6% | activity of the known enzyme [4]: ≤ 0.1%; activity of the novel enzyme (in words) ([3]; pH 6.0): substantially no activity; also recorded: substantially no action; Relative Activity (%) pH 6.0 ([3]; substrate 10 mM, pH 6.0 (0.1 M acetate buffer), relative to L-glutamic acid): ≤ 0.1%
15 | N[C@@H](CCC(=O)O)C(=O)O [Glutamic acid] | – | – | – | Relative sensitivity ratio [5]: 100
16 | CSCC[C@H](N)C(=O)O [L-Methionine] | < 0.1% | < 0.1% | < 0.1% | –
17 | NCCCC[C@H](N)C(=O)O [L-Lysine] | < 0.1% | < 0.1% | < 0.1% | –
18 | N[C@@H](Cc1ccc(O)cc1)C(=O)O [L-Tyrosine] | – | < 0.1% | < 0.1% | –
19 | N=C(N)NCCC[C@H](N)C(=O)O [Arginine] | – | – | – | Relative sensitivity ratio [5]: 0.6
20 | [N-]=[N+]=[N-].[Na+] [NaN3] | – | – | – | Relative activity [1, 6]: 100.6
21 | NC(=O)CC[C@H](N)C(=O)O [Glutamine] | – | – | – | Relative sensitivity ratio, acetone treated cell ([5]; acetone treated cell was employed): 11; Relative sensitivity ratio [5]: 108
22 | [Ba+2].[Cl-].[Cl-] [BaCl2] | – | – | – | Relative activity [1, 6]: 95.1
23 | [Cl-].[Na+] [NaCl] | – | – | – | Relative activity ([1]; l-glutamic acid oxidase, pH 7.4, 1000 µM): 95.8
24 | N[C@@H](CC(=O)O)C(=O)O [Aspartic acid] | – | – | – | Relative sensitivity ratio [5]: 1.0
25 | O=S(=O)(O)c1cc(O)c(O)c(S(=O)(=O)O)c1 [Tiron, 4,5dihydroxy-1,3-benzenedisulfonic acid disodium salt] | – | – | – | activity at 1000 µM [1, 9]: 101%
26 | CC(C)[C@H](N)C(=O)O [L-Valine] | < 0.1% | < 0.1% | < 0.1% | –
